In patent US8440710B2, “HSL inhibitors useful in the treatment of diabetes” (Hoffmann-La Roche Inc., priority 2009, dated 2013):

Target: T1, human HSL (Homo sapiens, UniProt Q05469)
T1 construct: generate a full length human HSL ORF with a 3′-His6 tag; made in house; host or cells: High 5 insect cells (baculovirus, pFast-BAC)
T1 sequence (Q05469 1-1076): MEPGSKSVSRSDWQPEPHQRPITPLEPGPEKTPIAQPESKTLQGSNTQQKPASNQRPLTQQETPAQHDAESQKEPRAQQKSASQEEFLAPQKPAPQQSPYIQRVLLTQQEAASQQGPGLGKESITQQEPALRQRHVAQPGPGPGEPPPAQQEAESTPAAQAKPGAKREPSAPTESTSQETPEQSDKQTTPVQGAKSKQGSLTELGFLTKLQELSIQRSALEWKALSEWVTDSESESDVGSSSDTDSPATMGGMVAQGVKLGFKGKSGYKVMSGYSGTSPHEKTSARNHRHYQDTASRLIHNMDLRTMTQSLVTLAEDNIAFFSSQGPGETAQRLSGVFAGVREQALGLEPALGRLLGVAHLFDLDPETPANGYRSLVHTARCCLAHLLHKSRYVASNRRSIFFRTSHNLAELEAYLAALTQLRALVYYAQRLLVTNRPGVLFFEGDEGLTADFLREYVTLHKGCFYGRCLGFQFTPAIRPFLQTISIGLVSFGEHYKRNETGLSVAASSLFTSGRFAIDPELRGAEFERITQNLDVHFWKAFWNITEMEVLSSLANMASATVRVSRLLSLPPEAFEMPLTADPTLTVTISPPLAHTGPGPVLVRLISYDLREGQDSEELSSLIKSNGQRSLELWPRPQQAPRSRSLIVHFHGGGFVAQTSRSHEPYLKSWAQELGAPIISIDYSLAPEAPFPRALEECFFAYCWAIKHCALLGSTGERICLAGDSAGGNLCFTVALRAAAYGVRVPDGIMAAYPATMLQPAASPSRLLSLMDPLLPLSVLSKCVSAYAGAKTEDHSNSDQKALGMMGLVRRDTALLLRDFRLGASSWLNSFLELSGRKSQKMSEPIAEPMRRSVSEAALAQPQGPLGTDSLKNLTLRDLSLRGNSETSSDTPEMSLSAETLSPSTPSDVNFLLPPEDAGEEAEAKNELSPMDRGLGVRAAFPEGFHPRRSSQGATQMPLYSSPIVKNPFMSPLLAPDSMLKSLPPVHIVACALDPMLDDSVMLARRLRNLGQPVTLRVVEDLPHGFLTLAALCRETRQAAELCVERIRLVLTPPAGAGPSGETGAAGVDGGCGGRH
Test: Human Hormone-Sensitive Lipase (HSL) enzyme inhibition assay (colorimetric, DMPT substrate)
Assay type: biochemical
Conditions: human full length HSL-His6, 2,3-dimercapto-1-propanol tributyrate substrate, 37° C. 20 minutes, absorbance at 405 nm; read-out: HSL hum IC50
How it was run: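 Full-length human HSL with C-terminal His6, expressed in baculovirus-infected High 5 cells and Ni-NTA purified, was added (15 ug/ml stock) to 1.5 mM DMPT in 100 mM MOPS pH 7.2, 0.2 mg/ml fatty acid-free BSA containing compound. After 20 min at 37 °C, DTNB with SDS/Triton X-100 was added; A405 read after 15 min at RT.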

SMILES | IC50 [nM]
CCc1ccc(CCN2CC[C@]3(CC[C@@](O)(COC)CC3)C2=O)cc1 [Example 373, (5α,8α)-2-[2-(4-Ethyl-phenyl)-ethyl]-8-hydroxy-8-methoxymethyl-2-aza-spiro[4.5]decan-1-one] | 70
CC(C)Oc1ccc(N2CC[C@]3(CC[C@@](O)(c4cnn[nH]4)CC3)C2=O)cc1 [Example 374, (5α,8α)-8-hydroxy-2-(4-isopropoxyphenyl)-8-(1H-1,2,3-triazol-4-yl)-2-azaspiro[4.5]decan-1-one] | 400
CCc1ccc(CCN2CC[C@]3(CC[C@@](O)(COC(C)C)CC3)C2=O)cc1 [Example 375, (5α,8α)-2-[2-(4-Ethyl-phenyl)-ethyl]-8-hydroxy-8-isopropoxymethyl-2-aza-spiro[4.5]decan-1-one] | 14.2

More lines, now with the values ahead:

IC50 [nM] | SMILES
80 | O=c1ccccn1C[C@]1(O)CC[C@@]2(CCN(c3ccc(OCC(F)(F)F)cc3)C2=O)CC1 [Example 370, (5α,8β)-8-Hydroxy-8-(2-oxo-2H-pyridin-1-ylmethyl)-2-[4-(2,2,2-trifluoro-ethoxy)-phenyl]-2-aza-spiro[4.5]decan-1-one]
20 | O=C1N(c2ccc(OCC(F)(F)F)cc2)CC[C@]12CC[C@@](O)(COc1ccccn1)CC2 [Example 371, (5α,8α)-8-Hydroxy-8-(pyridin-2-yloxymethyl)-2-[4-(2,2,2-trifluoro-ethoxy)-phenyl]-2-aza-spiro[4.5]decan-1-one]
17 | CO[C@H](c1ccc(N2CC[C@]3(CC[C@@](O)(COCC(F)(F)F)CC3)C2=O)cc1)C(F)(F)F [Example 372, (5α,8α)-8-Hydroxy-8-(2,2,2-trifluoro-ethoxymethyl)-2-[4-((R)-2,2,2-trifluoro-1-methoxy-ethyl)-phenyl]-2-aza-spiro[4.5]decan-1-one]
